In brackets after ≈: the same amount, converted by molar mass. Residues, ends and D or L forms follow the SMILES beside them. *: point of attachment. Biotin = O=C1N[C@H]2[C@H](CS[C@H]2CCCCC(=O)*)N1
How the values were obtained:
[1] = tested on: Escherichia coli ATCC 25922; experiment: Antimicrobial assay (MIC), E. coli; format: cell-based; conditions: overnight at 37° C.
Method: Antimicrobial assay. Two bacterial strains (Escherichia coli ATCC 25922 and Enterococcus faecalis ATCC 29212) were inoculated on heart infusion agar with 5% sheep blood and incubated aerobically overnight at 37° C. From the pure cultures, suspensions were made in saline to a density of 0.5 McFarland. These suspensions were diluted ten-fold in Mueller Hinton II broth, resulting in a final inoculum of approximately 10^7 cfu/ml.
Standard 96-well microtiter trays were filled with 100 ill of two-fold dilutions of peptide in physiologic salt solution in each well, resulting in the following concentration range: 4000, 2000, 1000, 500, 250, 125, 62.25, 31.63, 15.82, 7.96 and 0 μg/ml. The trays in column 12 were filled with 200 μl MH II broth (negative control).
Columns 1-11 of the microtiter trays were filled with 100 μl of the final inoculum of the bacterial suspensions, thus diluting the concentrations of the peptide two fold, resulting in the following peptide concentration range in the wells: 2000, 1000, 500, 250, 125, 62.25, 31.63, 15.82, 7.96, 3.98 and 0 μg/ml. In rows B, C and D, 100 μl of the final inoculum of E. coli and, in rows E, F and G, 100 μl of the final inoculum of E. faecalis was pipetted. The final bacterial concentration was approximately 5×10^5 cfu/well. All trays were sealed and incubated overnight at 37° C. After incubation, the microtiter trays were inspected visually for bacterial growth and the absorbance of the cultures at 630 nm (A630) was determined with an ELISA-reader. […] The experiment was performed independently in triplicate. The test was repeated again in triplicate after two days with the final peptide concentration range in the wells: 5000, 2500, 1250, 625, 312.5, 156.25, 78.12, 39.06, 19.58, 9.79, 4.88, 2.44 and 1.22 μg/ml.

guinea pig erythrocytes = experiment: Hemolytic assay, guinea pig erythrocytes; format: cell-based; conditions: 1% v/v, one hour at 37° C.
Method: Hemolytic assay. Hemolytic activity of various peptide concentrations was determined by incubation with human, guinea pig or sheep erythrocyte suspensions (final erythrocyte concentration, 1% v/v) for one hour at 37° C. After cooling and centrifugation, the optical density of the supernatants were measured at 540 nm. Peptide concentrations causing 50% hemolysis (EC50) were derived from the dose-response curves.

Compound	MIC (minimal inhibitory concentration needed to inhibit bacterial growth) [1] [mg/L]	Hemolysis (peptide concentration causing 50% hemolysis) (guinea pig erythrocytes) [mg/mL]
CC[C@H](C)[C@H](NC(=O)[C@H](CCCNC(=N)N)NC(=O)[C@H](CC(C)C)NC(=O)[C@H](CCC(N)=O)NC(=O)[C@H](CCCNC(=N)N)NC(=O)CNC(=O)[C@H](CC(C)C)NC(=O)[C@H](Cc1c[nH]c2ccccc12)NC(=O)[C@H](CO)NC(=O)[C@@H](NC(=O)[C@@H](NC(=O)[C@H](CCCNC(=N)N)NC(=O)[C@H](C)NC(=O)[C@H](C)NC(=O)CNC(=O)[C@H](CCC(N)=O)NC(=O)[C@H](CCCNC(=N)N)NC(=O)[C@H](C)NC(=O)[C@H](CC(N)=O)NC(=O)[C@H](CCC(=O)O)NC(=O)[C@@H](NC(=O)[C@@H](NC(=O)[C@H](CC(N)=O)NC(=O)[C@@H](NC(=O)[C@H](CCSC)NC(=O)CNC(=O)[C@H](CC(=O)O)NC(=O)[C@H](CC(C)C)NC(=O)[C@H](CC(C)C)NC(=O)[C@H](Cc1ccc(O)cc1)NC(=O)CCCC[C@@H]1SC[C@@H]2NC(=O)N[C@@H]21)[C@@H](C)O)[C@@H](C)O)[C@@H](C)CC)C(C)C)[C@@H](C)O)C(=O)N[C@@H](C)C(=O)NCC(=O)N[C@@H](CCCCN)C(=O)N[C@@H](CCCNC(=N)N)C(=O)N[C@@H](CC(C)C)C(=O)N[C@@H](CCC(=O)O)C(=O)NCC(=O)N[C@@H](CCCNC(=N)N)C(=O)N[C@@H](CO)C(=O)N[C@@H](CCCCN)C(N)=O [181-220]	51 (≈ 10.8 µM)	0.09
CC[C@H](C)[C@H](NC(=O)[C@H](CCCNC(=N)N)NC(=O)[C@H](CC(C)C)NC(=O)[C@H](CCC(N)=O)NC(=O)[C@H](CCCNC(=N)N)NC(=O)CNC(=O)[C@H](CC(C)C)NC(=O)[C@H](Cc1c[nH]c2ccccc12)NC(=O)[C@H](CO)NC(=O)[C@@H](NC(=O)[C@@H](NC(=O)[C@H](CCCNC(=N)N)NC(=O)[C@H](C)NC(=O)[C@H](C)NC(=O)CNC(=O)[C@H](CCC(N)=O)NC(=O)[C@H](CCCNC(=N)N)NC(=O)[C@H](C)NC(=O)[C@H](CC(N)=O)NC(=O)[C@H](CCC(=O)O)NC(=O)[C@@H](NC(=O)[C@@H](NC(=O)[C@H](CC(N)=O)NC(=O)[C@@H](NC(=O)[C@H](CCSC)NC(=O)CNC(=O)[C@H](CC(=O)O)NC(=O)CCCC[C@@H]1SC[C@@H]2NC(=O)N[C@@H]21)[C@@H](C)O)[C@@H](C)O)[C@@H](C)CC)C(C)C)[C@@H](C)O)C(=O)N[C@@H](C)C(=O)NCC(=O)N[C@@H](CCCCN)C(=O)N[C@@H](CCCNC(=N)N)C(=O)N[C@@H](CC(C)C)C(=O)N[C@@H](CCC(=O)O)C(=O)NCC(=O)N[C@@H](CCCNC(=N)N)C(=O)N[C@@H](CO)C(=O)N[C@@H](CCCCN)C(=O)N[C@H](C(=O)N[C@@H](Cc1c[nH]c2ccccc12)C(=O)N[C@@H](Cc1ccccc1)C(N)=O)[C@@H](C)O [184-223]	46 (≈ 9.67 µM)	0.15
CC[C@H](C)[C@H](NC(=O)[C@H](CCCNC(=N)N)NC(=O)[C@H](CC(C)C)NC(=O)[C@H](CCC(N)=O)NC(=O)[C@H](CCCNC(=N)N)NC(=O)CNC(=O)[C@H](CC(C)C)NC(=O)[C@H](Cc1c[nH]c2ccccc12)NC(=O)[C@H](CO)NC(=O)[C@@H](NC(=O)[C@@H](NC(=O)[C@H](CCCNC(=N)N)NC(=O)[C@H](C)NC(=O)[C@H](C)NC(=O)CNC(=O)[C@H](CCC(N)=O)NC(=O)[C@H](CCCNC(=N)N)NC(=O)[C@H](C)NC(=O)[C@H](CC(N)=O)NC(=O)[C@H](CCC(=O)O)NC(=O)CCCC[C@@H]1SC[C@@H]2NC(=O)N[C@@H]21)C(C)C)[C@@H](C)O)C(=O)N[C@@H](C)C(N)=O [191-211]	395 (≈ 153 µM)	>0.33
CC[C@H](C)[C@H](NC(=O)[C@H](CCCNC(=N)N)NC(=O)[C@H](CC(C)C)NC(=O)[C@H](CCC(N)=O)NC(=O)[C@H](CCCNC(=N)N)NC(=O)CNC(=O)[C@H](CC(C)C)NC(=O)[C@H](Cc1c[nH]c2ccccc12)NC(=O)[C@H](CO)NC(=O)[C@@H](NC(=O)[C@@H](NC(=O)[C@H](CCCNC(=N)N)NC(=O)[C@H](C)NC(=O)[C@H](C)NC(=O)CNC(=O)[C@H](CCC(N)=O)NC(=O)[C@H](CCCNC(=N)N)NC(=O)[C@H](C)NC(=O)[C@H](CC(N)=O)NC(=O)[C@H](CCC(=O)O)NC(=O)CCCC[C@@H]1SC[C@@H]2NC(=O)N[C@@H]21)C(C)C)[C@@H](C)O)C(=O)N[C@@H](C)C(=O)NCC(=O)N[C@@H](CCCCN)C(=O)N[C@@H](CCCNC(=N)N)C(=O)N[C@@H](CC(C)C)C(=O)N[C@@H](CCC(=O)O)C(N)=O [191-216]	95 (≈ 30 µM)	>0.33
CC[C@H](C)[C@H](NC(=O)[C@H](CCCNC(=N)N)NC(=O)[C@H](CC(C)C)NC(=O)[C@H](CCC(N)=O)NC(=O)[C@H](CCCNC(=N)N)NC(=O)CNC(=O)[C@H](CC(C)C)NC(=O)[C@H](Cc1c[nH]c2ccccc12)NC(=O)[C@H](CO)NC(=O)[C@@H](NC(=O)[C@@H](NC(=O)[C@H](CCCNC(=N)N)NC(=O)[C@H](C)NC(=O)[C@H](C)NC(=O)CNC(=O)[C@H](CCC(N)=O)NC(=O)[C@H](CCCNC(=N)N)NC(=O)[C@H](C)NC(=O)[C@H](CC(N)=O)NC(=O)[C@H](CCC(=O)O)NC(=O)CCCC[C@@H]1SC[C@@H]2NC(=O)N[C@@H]21)C(C)C)[C@@H](C)O)C(=O)N[C@@H](C)C(=O)NCC(=O)N[C@@H](CCCCN)C(=O)N[C@@H](CCCNC(=N)N)C(=O)N[C@@H](CC(C)C)C(=O)N[C@@H](CCC(=O)O)C(=O)NCC(=O)N[C@@H](CCCNC(=N)N)C(=O)N[C@@H](CO)C(=O)N[C@@H](CCCCN)C(N)=O [191-220]	47 (≈ 13.1 µM)	0.31
CC[C@H](C)[C@H](NC(=O)[C@H](CCCNC(=N)N)NC(=O)[C@H](CC(C)C)NC(=O)[C@H](CCC(N)=O)NC(=O)[C@H](CCCNC(=N)N)NC(=O)CNC(=O)[C@H](CC(C)C)NC(=O)[C@H](Cc1c[nH]c2ccccc12)NC(=O)[C@H](CO)NC(=O)[C@@H](NC(=O)[C@@H](NC(=O)[C@H](CCCNC(=N)N)NC(=O)[C@H](C)NC(=O)[C@H](C)NC(=O)CNC(=O)[C@H](CCC(N)=O)NC(=O)[C@H](CCCNC(=N)N)NC(=O)[C@H](C)NC(=O)[C@H](CC(N)=O)NC(=O)[C@H](CCC(=O)O)NC(=O)CCCC[C@@H]1SC[C@@H]2NC(=O)N[C@@H]21)C(C)C)[C@@H](C)O)C(=O)N[C@@H](C)C(=O)NCC(=O)N[C@@H](CCCCN)C(=O)N[C@@H](CCCNC(=N)N)C(=O)N[C@@H](CC(C)C)C(=O)N[C@@H](CCC(=O)O)C(=O)NCC(=O)N[C@@H](CCCNC(=N)N)C(=O)N[C@@H](CO)C(=O)N[C@@H](CCCCN)C(=O)N[C@H](C(=O)N[C@@H](Cc1c[nH]c2ccccc12)C(=O)N[C@@H](Cc1ccccc1)C(N)=O)[C@@H](C)O [191-223]	41 (≈ 10.2 µM)	0.15
CC(C)C[C@H](NC(=O)[C@H](CCC(N)=O)NC(=O)[C@H](CCCCN)NC(=O)CNC(=O)[C@H](CC(C)C)NC(=O)[C@H](Cc1c[nH]c2ccccc12)NC(=O)[C@@H](NC(=O)[C@@H](NC(=O)[C@H](CC(C)C)NC(=O)[C@H](CCCCN)NC(=O)[C@H](C)NC(=O)[C@@H](NC(=O)CNC(=O)[C@H](CCC(N)=O)NC(=O)[C@H](CCCNC(=N)N)NC(=O)[C@H](C)NC(=O)CNC(=O)[C@H](CCC(=O)O)NC(=O)CCCC[C@@H]1SC[C@@H]2NC(=O)N[C@@H]21)[C@@H](C)O)[C@@H](C)O)[C@@H](C)O)C(=O)NCC(=O)N[C@H](C(=O)N[C@@H](C)C(=O)NCC(=O)N[C@@H](CCCCN)C(=O)N[C@@H](CCCCN)C(=O)N[C@@H](CC(C)C)C(=O)N[C@@H](CCC(=O)O)C(=O)N[C@@H](CC(N)=O)C(=O)N[C@@H](CCCCN)C(=O)N[C@@H](CO)C(=O)N[C@@H](CCCCN)C(=O)N[C@H](C(=O)N[C@@H](Cc1c[nH]c2ccccc12)C(=O)N[C@@H](Cc1ccccc1)C(=O)NCC(=O)N[C@@H](C)C(=O)N[C@@H](Cc1ccc(O)cc1)C(=O)N[C@@H](C)C(N)=O)[C@@H](C)O)[C@@H](C)O [194-230] (Biotin-EGARQGTAKLTTWLGKQLGTAGKKLENKSKTWFGAYA-NH2)	93 (≈ 22 µM)	0.25
CC[C@H](C)[C@H](NC(=O)[C@H](CCCNC(=N)N)NC(=O)[C@H](CC(C)C)NC(=O)[C@H](CCC(N)=O)NC(=O)[C@H](CCCNC(=N)N)NC(=O)CNC(=O)[C@H](CC(C)C)NC(=O)[C@H](Cc1c[nH]c2ccccc12)NC(=O)[C@H](CO)NC(=O)[C@@H](NC(=O)[C@@H](NC(=O)[C@H](CCCNC(=N)N)NC(=O)[C@H](C)NC(=O)[C@H](C)NC(=O)CNC(=O)CCCC[C@@H]1SC[C@@H]2NC(=O)N[C@@H]21)C(C)C)[C@@H](C)O)C(=O)N[C@@H](C)C(=O)NCC(=O)N[C@@H](CCCCN)C(=O)N[C@@H](CCCNC(=N)N)C(=O)N[C@@H](CC(C)C)C(=O)N[C@@H](CCC(=O)O)C(=O)NCC(=O)N[C@@H](CCCNC(=N)N)C(=O)N[C@@H](CO)C(=O)N[C@@H](CCCCN)C(N)=O [196-220]	25 (≈ 8.35 µM)	0.16
